# From publication PMC10885153, “Membrane Permeability in a Large Macrocyclic Peptide Driven by a Saddle-Shaped Conformation” (Journal of the American Chemical Society, 2024)
# Like-named read-outs stand apart in the source and are kept apart here. Positions of bridges follow the written chain, without caps; N, C: chain ends. Non-standard residues stand in square brackets, D forms with d. Residues, ends and D or L forms follow the SMILES beside them. Cha = N[C@@H](CC1CCCCC1)C(=O)O; NMeNva = CCC[C@H](NC)C(=O)O; NMeAbu = CC[C@H](NC)C(=O)O; NMeC = CN[C@@H](CS)C(=O)O; NMeA = CN[C@@H](C)C(=O)O; dAbu = CC[C@@H](N)C(=O)O; dNMeA = CN[C@H](C)C(=O)O; Nva = CCC[C@H](N)C(=O)O; Abu = CC[C@H](N)C(=O)O; Nleu = CC(C)CNCC(=O)O; NPrGly = CCCNCC(=O)O; NEtG = CCNCC(=O)O
# Columns and labels:
# in vitro [1] = conditions: dog, pH 7.4
# Description: (§1) We also tested the permeabilities of the pure compounds in a cell-based trans-well permeability assay using Mdr1 knockout Madin–Darby canine kidney (MDCK) cells which minimize the endogenous efflux activity of traditional MDCK cells.[54]
# (§2) The gMDCKI cell line (overexpressed cell line of Madin -Darby Canine Kidney which acquired from the NIH)
# (§3) maintained in DMEM medium supplemented with 1% pen -strep, 5 µg/mL Plasmocin, and 10% FBS under
# (§4) standard culture conditions (37 °C, 95% humidity, and 5% CO2), were seeded (0.75 x 10^5 cells) on the HTS
# (§5) Transwell-96 permeable support (Corning) to form a confluent monolayer for two days.
# (§6) All experimental steps were fully automated on Hamilton Vantage. Compound stock solution (1 mM in
# (§7) DMSO) was diluted (10 μM final in HBSS, pH 7.4) with Lucifer Yellow as leakage indicator (20 μM). After
# (§8) washing with HBSS buffer, the solution of test compounds was added to the apical side of the monolayers.
# (§9) The plate was incubated for 3 h at 37 °C. T0 samples (10 µL of the 10 µM compounds diluted solution with
# (§10) LY) were transferred to a 96-well plate, and then 40 µL of HBSS was added. After 3 hours, 50 μL basolateral
# (§11) samples in the receiving plate were transferred to a fresh 96-well plate and added 100 μL of IS solution
# (§12) (Propranolol). LY were read by plate reader and the samples were analyzed by LC/MS/MS.
# (§13) The apparent permeability coefficient (Papp) is calculated from the permeation rate and compound
# concentration at t=0h and t=3h. Where:
# (§14) dQ/dt: amount of product present in the basal (A-B) or apical (B-A) compartment as a function of time
# A: area of transwell (cm2).
# (§15) C0: initial concentration of product applied in the apical (A -B) or basal (B-A) compartment (nmol/ml).
# [2] = 10 µM, pH 7.4
# Description: (§16) assay was carried out with a 96-well donor plate with 0.45 μ hydrophobic Immobilon-P membrane supports
# (§17) (Millipore MAIPNTR10) and a 96-well Teflon acceptor plate (Millipore MSSACCEPTOR). The PAMPA
# protocol then proceeded as follows:
# (§18) Donor well solutions were prepared to a volume of 1 000 µL with the analytes as a solution in 1X
# (§19) PBS pH 7.4 and 5% DMSO. To a 3 mL Eppendorf tube was added 950 µL of 1X PBS pH 7.4, 40
# Analyte – 10 µM per compound
# (§20) sonicated (5 min) to ensure full dissolution of the lecithin. The donor membrane plate was turned
# (§21) upside down and bottom of the membranes exposed. 5 µL of the 1% soy lecithin solution in
# (§22) dodecane was then placed on the bottom of the membrane, allowing the drop to spread across the
# (§23) full area of the membrane. Any membranes with visible damage were not used in the assay. The
# (§24) membranes were allowed to equilibrate for 5 min before loading.
# (§25) 3. Each well within the Teflon block acceptor plate that was to be used in the assay was then loaded
# (§26) with 300 µL of 1X PBS pH 7.4 and 5% DMSO.
# (§27) Working without break, 150 µL of each donor well solution was transferred from the to the 96-well
# (§28) donor plate. Each mixture of interest was r un in quadruplicate, using a new well for each replicate.
# (§29) As soon as the 96-well donor plate was finished being loaded, it was gently placed into the 96-well
# (§30) Teflon acceptor plate, taking care not to trap any air bubbles beneath the membrane.
# (§31) The donor/acceptor plates were covered gently with the lid to minimize evaporation and transferred
# (§32) gently as a system to a sealed chamber and left to sit overnight at room temperature. The chamber
# (§33) was kept from drying by placing a wet paper towel within to prevent evaporation.
# (§34) After ~19-20 hours the donor plate was removed from the acceptor plate.
# (§35) 50 µL of each well (donor and acceptor) were transferred to a 96 -well plate and diluted with 50 µL
# (§36) of methanol prior to heat sealing and quantification by UPLC -MS.
# in vitro [3] = conditions: PAMPA, pH 7.4, Permeability (Papp) PAMPA (mixture)
# [4] = PAMPA, 10 µM, pH 7.4
# in vitro [5] = conditions: PAMPA
# Description: as §16, §17
# protocol then proceeded as follows:
# as §18, §19
# Analyte – 10 µM per compound
# as §20, §21, §22, §23, §24, §25, §26, §27, §28, §29, §30, §31, §32, §33, §34, §35, §36
# [6] = MDCK
# Description: as §1, §2, §3, §4, §5, §6, §7, §8, §9, §10, §11, §12, §13
# concentration at t=0h and t=3h. Where:
# as §14
# A: area of transwell (cm2).
# as §15
# [7] = test system: Mdr1 knockout Madin–Darby canine kidney (MDCK) cells
# Description: as §1, §2, §3, §4, §5, §6, §7, §8, §9, §10, §11, §12, §13
# concentration at t=0h and t=3h. Where:
# as §14
# A: area of transwell (cm2).
# as §15
# [8] = PAMPA, individually resynthesized pure compounds (primary protocol);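 further: artificial membrane of 1% soy lecithin in dodecane on a filter plate, donor and acceptor buffer PBS pH 7.4 with 5% DMSO, incubated overnight at room temperature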
# Description: as §16, §17
# protocol then proceeded as follows:
# as §18, §19
# Analyte – 10 µM per compound
# as §20, §21, §22, §23, §24, §25, §26, §27, §28, §29, §30, §31, §32, §33, §34, §35, §36
# [9] = PAMPA
# Description: as §16, §17
# protocol then proceeded as follows:
# as §18, §19
# Analyte – 10 µM per compound
# as §20, §21, §22, §23, §24, §25, §26, §27, §28, §29, §30, §31, §32, §33, §34, §35, §36
# [10] = pH 7.4, Permeability (Papp) PAMPA (indiv.)
# [11] = pH 7.4, kinetic from dmso stock
# [12] = pH 7.4, aqueous with cosolvent or surfactant or cyclodextrin, kinetic from dmso stock
# [13] = resynthesized stereoscan compounds, 10 μM, HBSS pH 7.4, 3 h
# Description for physchem: Kinetic Solubility PBS Protocol
# 4 µL of 10 mM compound in DMSO stock was added to 196 µL 1 X PBS pH 7.4 in a 96 -well microplate to
# get a final concentration of 200 µM to shake for 24 hours at 1000 rpm. The sample was filtered sample
# using a 96-Multiscreen HTS filter plate (Millipore MSSL BPC50) and a positive pressure manifold.
smiles,measurement,setting,value
"CCCN1CC(=O)N[C@@H](CC)C(=O)N(C)[C@@H](C)C(=O)N[C@@H](CC(C)C)C(=O)N(C)[C@H](C(=O)OCC)CSCC(=O)N[C@@H](CC(C)C)C(=O)N(C)[C@@H](C)C(=O)N[C@@H](CC(C)C)C(=O)N2CCC[C@@H]2C1=O [LA04, O=C(N(C)[C@H](C(OCC)=O)CSCC(N[C@H](C(N(C)[C@@H](C)C(N[C@@H](CC(C)C)C(N1[C@H](CCC1)C(N(CCC)CC(N[C@H]2CC)=O)=O)=O)=O)=O)CC(C)C)=O)[C@H](CC(C)C)NC([C@H](C)N(C)C2=O)=O] ({CH2CO}-L[NMeA]L[dP][NPrGly][Abu][NMeA]L[NMeC]-OEt; thioether N-9)","Papp A→B at 3 h, 10 µM",in vitro [1]; MDCK,4 ×10⁻⁶ cm/s
same,PAMPA Papp_avg,[2],3.86 ×10⁻⁶ cm/s
same,Papp at 10 µM,in vitro [3],4 ×10⁻⁶ cm/s
same,%R_avg,[4],8.2%
same,Papp at 10 µM,in vitro [5]; [10],3.9 ×10⁻⁶ cm/s
same,solubility kinetic at 24 h,physchem; [11],200 µM
"CCOC(=O)[C@@H]1CSCC(=O)N[C@@H](CC)C(=O)N(C)[C@@H](C)C(=O)N[C@@H](CC(C)C)C(=O)N(C)[C@H](C)C(=O)N(CC(C)C)CC(=O)N[C@H](CC(C)C)C(=O)N(C)[C@H](C)C(=O)N[C@@H](CC(C)C)C(=O)N1C [A1-1L, O=C(N(C)[C@H](C(OCC)=O)CSCC(N[C@H](C(N(C)[C@@H](C)C(N[C@@H](CC(C)C)C(N(C)[C@H](C)C(N(CC(C)C)CC(N[C@@H]1CC(C)C)=O)=O)=O)=O)=O)CC)=O)[C@H](CC(C)C)NC([C@@H](C)N(C)C1=O)=O] ({CH2CO}-[Abu][NMeA]L[dNMeA][Nleu][dL][dNMeA]L[NMeC]-OEt; thioether N-9)",Papp A→B,in vitro [1],0.93 ×10⁻⁶ cm/s
same,Papp,[6],0.9 ×10⁻⁶ cm/s
"CCC[C@H]1C(=O)N[C@@H](CC)C(=O)N(C)[C@@H](C)C(=O)N[C@@H](CC(C)C)C(=O)N(C)[C@H](C(=O)OCC)CSCC(=O)N[C@@H](CC(C)C)C(=O)N(C)[C@@H](C)C(=O)N[C@@H](CC(C)C)C(=O)N2CCC[C@@H]2C(=O)N1C [LC04, O=C(N(C)[C@H](C(OCC)=O)CSCC(N[C@H](C(N(C)[C@@H](C)C(N[C@@H](CC(C)C)C(N1[C@H](CCC1)C(N(C)[C@@H](CCC)C(N[C@H]2CC)=O)=O)=O)=O)=O)CC(C)C)=O)[C@H](CC(C)C)NC([C@H](C)N(C)C2=O)=O] ({CH2CO}-L[NMeA]L[dP][NMeNva][Abu][NMeA]L[NMeC]-OEt; thioether N-9)","Papp A→B at 3 h, 10 µM",in vitro [1]; MDCK,6.5 ×10⁻⁶ cm/s
same,PAMPA Papp_avg,[2],3.3 ×10⁻⁶ cm/s
same,%R_avg,[4],11.2%
same,Papp at 10 µM,in vitro [5]; [10],3.3 ×10⁻⁶ cm/s
same,solubility kinetic at 24 h,physchem; [12],183 µM
"CCCN1CC(=O)N[C@@H](CC(C)C)C(=O)N2CCC[C@@H]2C(=O)N(C)[C@@H](C)C(=O)N[C@@H](CC)C(=O)N(C)[C@@H](C)C(=O)N[C@@H](CC(C)C)C(=O)N(C)[C@H](C(=O)OCC)CSCC(=O)N[C@@H](CC(C)C)C1=O [LB04, O=C(N(C)[C@H](C(OCC)=O)CSCC(N[C@H](C1=O)CC(C)C)=O)[C@H](CC(C)C)NC([C@H](C)N(C)C([C@H](CC)NC([C@H](C)N(C)C([C@@H]2N(C([C@H](CC(C)C)NC(CN1CCC)=O)=O)CCC2)=O)=O)=O)=O] ({CH2CO}-L[NPrGly]L[dP][NMeA][Abu][NMeA]L[NMeC]-OEt; thioether N-9)","Papp A→B at 3 h, 10 µM",in vitro [1]; MDCK,2.6 ×10⁻⁶ cm/s
same,%R_avg,[4],35.8%
same,MDCK Papp_avg,"[7]; dog, MDCK, 3 h, 10 µM, pH 7.4",2.6 ×10⁻⁶ cm/s
same,solubility kinetic at 24 h,physchem; [12],105 µM
"CCOC(=O)[C@@H]1CSCC(=O)N[C@H](CC)C(=O)N(CC(C)C)CC(=O)N[C@@H](CC(C)C)C(=O)N(C)[C@H](C)C(=O)N(C)[C@@H](C)C(=O)N[C@H](CC(C)C)C(=O)N(C)[C@@H](C)C(=O)N[C@@H](CC(C)C)C(=O)N1C [B1-7L, O=C([C@@H](NC([C@@H](N(C([C@H](NC([C@@H](N(C([C@H](N(C)C([C@@H](NC(CN1CC(C)C)=O)CC(C)C)=O)C)=O)C)C)=O)CC(C)C)=O)C)C)=O)CC(C)C)N([C@@H](CSCC(N[C@H](CC)C1=O)=O)C(OCC)=O)C] ({CH2CO}-[dAbu][Nleu]L[dNMeA][NMeA][dL][NMeA]L[NMeC]-OEt; thioether N-9)","Papp at 3 h, 10 µM",in vitro [1]; MDCK,1.2 ×10⁻⁶ cm/s
same,MDCK Pe_avg,"[7]; dog, MDCK, 3 h, 10 µM, pH 7.4",1.21 ×10⁻⁶ cm/s
same,Papp at 10 µM,"in vitro [5]; pH 7.4, PAMPA Papp",5.7 ×10⁻⁶ cm/s
"CCC[C@@H]1NC(=O)[C@H](C)N(C)C(=O)[C@H](CC(C)C)NC(=O)CSC[C@@H](C(=O)OCC)N(C)C(=O)[C@H](CC(C)C)NC(=O)[C@H](C)N(C)C(=O)[C@H](CC2CCCCC2)NC(=O)[C@H](CC)N(C)C(=O)[C@H]2CCCN2C1=O [LC09, O=C(N(C)[C@H](C(OCC)=O)CSCC(N[C@H](C(N(C)[C@@H](C)C(N[C@@H](CCC)C(N1[C@H](CCC1)C(N(C)[C@@H](CC)C(N[C@H]2CC3CCCCC3)=O)=O)=O)=O)=O)CC(C)C)=O)[C@H](CC(C)C)NC([C@H](C)N(C)C2=O)=O] ({CH2CO}-L[NMeA][Nva][dP][NMeAbu][Cha][NMeA]L[NMeC]-OEt; thioether N-9)","Papp A→B at 3 h, 10 µM",in vitro [1]; MDCK,1.8 ×10⁻⁶ cm/s
same,%R_avg,[4],6.1%
same,MDCK Papp_avg,"[7]; dog, MDCK, 3 h, 10 µM, pH 7.4",1.8 ×10⁻⁶ cm/s
same,Papp at 10 µM,in vitro [5]; [10],0.3 ×10⁻⁶ cm/s
same,solubility kinetic at 24 h,physchem; [12],10 µM
"CCOC(=O)[C@@H]1CSCC(=O)N[C@H](CC)C(=O)N(C)[C@@H](C)C(=O)N[C@@H](CC(C)C)C(=O)N(C)[C@H](C)C(=O)N(CC(C)C)CC(=O)N[C@H](CC(C)C)C(=O)N(C)[C@H](C)C(=O)N[C@@H](CC(C)C)C(=O)N1C [A1, O=C(N(C)[C@H](C(OCC)=O)CSCC(N[C@@H](C(N(C)[C@@H](C)C(N[C@@H](CC(C)C)C(N(C)[C@H](C)C(N(CC(C)C)CC(N[C@@H]1CC(C)C)=O)=O)=O)=O)=O)CC)=O)[C@H](CC(C)C)NC([C@@H](C)N(C)C1=O)=O] ({CH2CO}-[dAbu][NMeA]L[dNMeA][Nleu][dL][dNMeA]L[NMeC]-OEt; thioether N-9)",Papp,[6],9 ×10⁻⁶ cm/s
same,Papp,"[8]; PAMPA Papp, Figure 5",10 ×10⁻⁶ cm/s
same,Papp,[8]; Papp,~10 ×10⁻⁶ cm/s
same,MDCK Pe_avg,[7]; [13],9.02 ×10⁻⁶ cm/s
"CCOC(=O)[C@@H]1CSCC(=O)N[C@@H](CC(C)C)C(=O)N(C)[C@@H](C)C(=O)N[C@@H](CC(C)C)C(=O)N2CCC[C@@H]2C(=O)N(CC)CC(=O)N[C@@H](CC)C(=O)N(C)[C@@H](C)C(=O)N[C@@H](CC(C)C)C(=O)N1C [LA02, O=C(N(C)[C@H](C(OCC)=O)CSCC(N[C@H](C(N(C)[C@@H](C)C(N[C@@H](CC(C)C)C(N1[C@H](CCC1)C(N(CC)CC(N[C@H]2CC)=O)=O)=O)=O)=O)CC(C)C)=O)[C@H](CC(C)C)NC([C@H](C)N(C)C2=O)=O] ({CH2CO}-L[NMeA]L[dP][NEtG][Abu][NMeA]L[NMeC]-OEt; thioether N-9)","Papp A→B at 3 h, 10 µM",in vitro [1]; MDCK,4.5 ×10⁻⁶ cm/s
same,"Papp at 3 h, 10 µM",in vitro [1]; MDCK,4.5 ×10⁻⁶ cm/s
same,PAMPA Papp_avg,[2],4.1 ×10⁻⁶ cm/s
same,%R_avg,[4],17.1%
same,Papp at 10 µM,in vitro [5]; [10],4.1 ×10⁻⁶ cm/s
same,solubility kinetic at 24 h,physchem; [11],200 µM
"CCOC(=O)[C@@H]1CSCC(=O)N[C@H](CC)C(=O)N(C)[C@@H](C)C(=O)N[C@@H](CC(C)C)C(=O)N(C)[C@H](C)C(=O)N(CC(C)C)CC(=O)N[C@@H](CC(C)C)C(=O)N(C)[C@H](C)C(=O)N[C@@H](CC(C)C)C(=O)N1C [A1-6L, O=C(N(C)[C@H](C(OCC)=O)CSCC(N[C@@H](C(N(C)[C@@H](C)C(N[C@@H](CC(C)C)C(N(C)[C@H](C)C(N(CC(C)C)CC(N[C@H]1CC(C)C)=O)=O)=O)=O)=O)CC)=O)[C@H](CC(C)C)NC([C@@H](C)N(C)C1=O)=O] ({CH2CO}-[dAbu][NMeA]L[dNMeA][Nleu]L[dNMeA]L[NMeC]-OEt; thioether N-9)",Papp A→B,in vitro [1],0.86 ×10⁻⁶ cm/s
same,Papp,[6],0.9 ×10⁻⁶ cm/s
"CCOC(=O)[C@@H]1CSCC(=O)N[C@@H](CC(C)C)C(=O)N(CC)CC(=O)N[C@@H](CC(C)C)C(=O)N2CCC[C@@H]2C(=O)N(C)[C@@H](C)C(=O)N[C@@H](CC)C(=O)N(C)[C@@H](C)C(=O)N[C@@H](CC(C)C)C(=O)N1C [LB02, O=C(N(C)[C@H](C(OCC)=O)CSCC(N[C@H](C1=O)CC(C)C)=O)[C@H](CC(C)C)NC([C@H](C)N(C)C([C@H](CC)NC([C@H](C)N(C)C([C@@H]2N(C([C@H](CC(C)C)NC(CN1CC)=O)=O)CCC2)=O)=O)=O)=O] ({CH2CO}-L[NEtG]L[dP][NMeA][Abu][NMeA]L[NMeC]-OEt; thioether N-9)","Papp A→B at 3 h, 10 µM",in vitro [1]; MDCK,1.8 ×10⁻⁶ cm/s
same,"Papp A→B at 3 h, 10 µM",in vitro [1],1.77 ×10⁻⁶ cm/s
same,Papp at 10 µM,in vitro [3],1 ×10⁻⁶ cm/s
same,%R_avg,[4],51.1%
same,Papp at 10 µM,in vitro [5]; [10],1.1 ×10⁻⁶ cm/s
same,solubility kinetic at 24 h,physchem; [12],126 µM
"CCOC(=O)[C@@H]1CSCC(=O)N[C@H](CC)C(=O)N(C)[C@@H](C)C(=O)N[C@@H](CC(C)C)C(=O)N2CCC[C@@H]2C(=O)N(CC(C)C)CC(=O)N[C@H](CC(C)C)C(=O)N(C)[C@H](C)C(=O)N[C@@H](CC(C)C)C(=O)N1C [A1-4dP, O=C(N(C)[C@H](C(OCC)=O)CSCC(N[C@@H](C(N(C)[C@@H](C)C(N[C@@H](CC(C)C)C(N1[C@H](CCC1)C(N(CC(C)C)CC(N[C@@H]2CC(C)C)=O)=O)=O)=O)=O)CC)=O)[C@H](CC(C)C)NC([C@@H](C)N(C)C2=O)=O] ({CH2CO}-[dAbu][NMeA]L[dP][Nleu][dL][dNMeA]L[NMeC]-OEt; thioether N-9)","Papp A→B at 3 h, 10 µM",in vitro [1],0.0246 ×10⁻⁶ cm/s
same,Papp,[9],0.3 ×10⁻⁶ cm/s
same,MDCK Papp,[7]; MDCK,0.0 × 10^–6 cm/s
same,Papp at 10 µM,"in vitro [5]; pH 7.4, PAMPA Pe_avg",0.398 ×10⁻⁶ cm/s
"CCOC(=O)[C@@H]1CSCC(=O)N[C@H](CC)C(=O)N(C)[C@@H](C)C(=O)N[C@@H](CC(C)C)C(=O)N(C)[C@H](C)C(=O)N(CC(C)C)CC(=O)N[C@H](CC(C)C)C(=O)N(C)[C@@H](C)C(=O)N[C@@H](CC(C)C)C(=O)N1C [A1-7L, O=C(N(C)[C@H](C(OCC)=O)CSCC(N[C@@H](C(N(C)[C@@H](C)C(N[C@@H](CC(C)C)C(N(C)[C@H](C)C(N(CC(C)C)CC(N[C@@H]1CC(C)C)=O)=O)=O)=O)=O)CC)=O)[C@H](CC(C)C)NC([C@H](C)N(C)C1=O)=O] ({CH2CO}-[dAbu][NMeA]L[dNMeA][Nleu][dL][NMeA]L[NMeC]-OEt; thioether N-9)",MDCK Pe_avg,[7]; [13],6.41 ×10⁻⁶ cm/s
